Structures can show the parent of a compound that is named as a salt.
Assays:
[1] = system: conscious dogs having renal hypertension; assay: Blood pressure (MAP, telemetry) in conscious dogs having renal hypertension; format: in vivo, dog (German sheepdogs); details: FIG. 1, conscious renal hypertensive dogs
Description: The antihypertensive effect of the combination was investigated in conscious dogs having renal hypertension. The hypertension was produced in German sheepdogs (weight 23-30 kg) using known methods in which one kidney is wrapped with cellophane and a stenosis is formed in the renal artery of the contralateral kidney using an occluder. The blood pressure was measured with a catheter implanted in the abdominal aorta and connected to a transmitter in the abdominal, cavity (telemetry). FIG. 1 illustrates the effect of cilazapril (10 mg/kg per os) and Compound A (30 mg/kg per os) alone, as well as, the effect of the simultaneous administration of the same dosages of the two substances (n=3 dogs for cilazapril and the combination, n=4 dogs for Compound A).

[2] = system: media of the right carotid artery; assay: Cross-section surface (area) of the media of the carotid artery in rats after 15 days of treatment; format: in vivo, rat (male, strain RoRo); details: rat carotid artery; for area of the media: cilazapril 10 mg/kg daily in feed, Compound A 30 mg/kg by probang, control 89000±5000 μm^2, combination p<0.05 (Student t-test); for effect of individual treatment on media area: result in words
Description: The influence of the individual compounds and their combination on the blood vessels was investigated in rats. Male rats, strain: RoRo (weight about 400 g; aged 4-5 months; Institut fur Biologisch-Medizinische Forschung, Fullinsdorf, CH) were used. The animals were divided randomly into a control group and into treatment groups. The duration of the treatment was 15 days. Cilazapril was admixed with the feed in an amount such that the daily intake was on average 10 mg/kg and Compound A (30 mg/kg) was administered using a probang. The control animals received the same laboratory feed without additive.
After 15 days, the rats were anaesthetized with ether and the carotid artery was fixed by perfusion with fixative agent (2.5% glutaraldehyde in 0.1M phosphate buffer, pH 7.4). For this, a probe was passed through the left ventricle of the heart into the ascending aorta (inflow) and a second probe was pushed through the right ventricle into the auricle (discharge).The vascular system was firstly rinsed with 10 ml of buffered isotonic NaCl solution and then fixed for 15 minutes with fixative at a pressure of 11.7 kPa. Subsequently, the right carotid artery was dissected, freed from adhering tissue and placed in 2.5% glutaraldehyde for further fixation. Each artery was divided into five vascular segments from the distal end to the proximal end, dehydrated and embedded in EPON 12 (Registered Mark of Shell A.G.). The middle segment was used for the morphological investigations. Semi-thin cross-sections (1 μm thick) were colored with toluidine blue and basic fuchsin. The cross-section surface of the media was measured with the morphometry system DIASYS (Datalab, Heinz Meyer, CH-3367 Thorigen).

Bioavailability = details: in vivo

SMILES	effect on blood pressure (MAP) ([1]; cilazapril 10 mg/kg per os, Compound A 30 mg/kg per os, alone or simultaneously, result in words)	area of the media [2] [μm^2]	effect of individual treatment on media area [2]	bioavailability (Bioavailability) [%]	lowering of blood pressure (MAP) ([1]; Compound A 30 mg/kg per os alone, n=4)
CCOC(=O)[C@H](CCc1ccccc1)N[C@H]1CCCN2CCC[C@@H](C(=O)O)N2C1=O [cilazapril, 9(S)-[1(S)-ethoxycarbonyl-3-phenylpropylamino]octahydro-10-oxo-6H-pyridazo[1,2-a][1,2]diazepine-1(S)-carboxylic acid]	without effect	84000±11000	without effect	70	–
COCC(=O)OC1(CCN(C)CCCc2nc3ccccc3[nH]2)CCc2cc(F)ccc2C1C(C)C (centres unmarked) [Compound A, [1S,2S]-2-[2-[[3-(2-benzimidazolyl)propyl]methylamino]ethyl]-6-fluoro-1,2,3,4-tetrahydro-1-isopropyl-2-naphthylmethoxyacetate dihydrochloride]	–	87000±4000	without effect	80 to 100	10-20 mmHg

— patent US5620975A, “Pharmaceutical composition and method for the control of hypertension” (Hoffmann-La Roche Inc., priority 1991, dated 1997)
